The text below walks through data of ChEMBL document CHEMBL1833973, “Biological evaluation and docking studies of natural isocoumarins as inhibitors for human kallikrein 5 and 7” (Bioorg Med Chem Lett, 2011).

Broadly, the IC50 is the point on the concentration scale where inhibition reaches its midpoint. A lower IC50 goes with greater potency in that assay. A word on the Ki: it is a measure of affinity in units of concentration, obtained from inhibition or displacement.

Test [1] has as its target T1, Kallikrein-7 (Homo sapiens, UniProt P49862). The experiment in a line: Competitive inhibition of human kallikrein 7 using Abz-KLYSSKQ-EDDnp as substrate by Lineweaver-Burk plot analysis.
Target sequence in this assay (P49862 30-253 limits assumed): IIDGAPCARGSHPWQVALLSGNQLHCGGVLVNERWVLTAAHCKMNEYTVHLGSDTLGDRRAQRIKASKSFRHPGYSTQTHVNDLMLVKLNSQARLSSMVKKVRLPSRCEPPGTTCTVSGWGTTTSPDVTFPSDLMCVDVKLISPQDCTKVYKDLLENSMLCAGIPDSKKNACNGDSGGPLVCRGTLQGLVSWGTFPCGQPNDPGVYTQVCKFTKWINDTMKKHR
Test [2] has as its target T1, Kallikrein-7. The test is described as follows: Inhibition of human kallikrein 7 using Abz-KLYSSKQ-EDDnp as substrate by spectrofluorimetric assay.
Target sequence in this assay (P49862 whole entry): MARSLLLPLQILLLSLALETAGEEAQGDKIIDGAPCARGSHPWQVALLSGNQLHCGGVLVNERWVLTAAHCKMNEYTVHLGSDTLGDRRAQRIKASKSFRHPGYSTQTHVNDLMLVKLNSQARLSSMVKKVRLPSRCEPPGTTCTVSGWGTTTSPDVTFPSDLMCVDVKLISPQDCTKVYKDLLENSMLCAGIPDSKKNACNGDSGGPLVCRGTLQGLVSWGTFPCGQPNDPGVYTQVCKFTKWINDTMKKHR
Test [3] has as its target T2, Kallikrein-5 (Homo sapiens, UniProt Q9Y337).
T2 sequence (Q9Y337 whole entry): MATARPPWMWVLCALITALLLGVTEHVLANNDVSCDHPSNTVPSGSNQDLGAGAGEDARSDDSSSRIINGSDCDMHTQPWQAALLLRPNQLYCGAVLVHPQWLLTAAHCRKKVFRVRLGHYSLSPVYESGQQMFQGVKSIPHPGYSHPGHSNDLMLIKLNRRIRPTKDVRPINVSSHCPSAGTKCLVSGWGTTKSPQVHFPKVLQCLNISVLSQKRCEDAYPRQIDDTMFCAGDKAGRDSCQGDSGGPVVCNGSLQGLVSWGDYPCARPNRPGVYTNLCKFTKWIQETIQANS
The experiment in a line: Inhibition of human kallikrein 5 using Abz-KLRSSKQ-EDDnp as substrate by spectrofluorimetric assay.

Test [4] has as its target T1, Kallikrein-7. The experiment in a line: Inhibition of human kallikrein 7 using Abz-KLYSSKQ-EDDnp as substrate by Lineweaver-Burk plot analysis.
Target sequence in this assay (P49862 whole entry): as the sequence (P49862 whole entry) above
The target of test [5] is T2, Kallikrein-5. The test is described as follows: Inhibition of human kallikrein 5 using Abz-KLRSSKQ-EDDnp as substrate by Lineweaver-Burk plot analysis.

Calls of active or inactive are those of the source. No cut-off for these calls is given here.

As to `COc1cc2c(OC)c3cc(C)oc(=O)c3c(O)c2c(O)c1-c1c(OC)cc2c(OC)c3cc(C)oc(=O)c3c(O)c2c1O`, the inhibition result in test [1] is “Active”. The half-maximal inhibitory concentration (IC50) came out at 112 µM in test [2] and 72.9 µM in test [3]. Besides, the Ki in test [4] came out at 12.2 µM; in test [5] it was 24.4 µM.
For the compound `COc1cc(O)c2c(O)c3c(=O)oc(C)cc3c(OC)c2c1` [PAEPALANTINE], the IC50 in test [2] was found to be 166 µM; in test [3], 367 µM. Moreover, the figures for the Ki in test [4] and in test [5] were 70.7 µM and 47.5 µM, respectively.
Turning to `COc1cc2cc3c(c(O)c2c(O)c1-c1c(OC)cc2cc4c(c(O)c2c1O)C(=O)O[C@H](C)C4)C(=O)O[C@H](C)C3` [VIOXANTHIN], the concentration for half-maximal inhibition (IC50) in test [2] worked out at 135 µM; in test [3], 53.7 µM. Moreover, the inhibition constant Ki was 37.2 µM in test [4] and 22.9 µM in test [5].
